Data on one compound can be found in US7179814B2, “Agents for controlling plant pests” (priority 1998, dated 2007).

Each structure is given as a SMILES string. Where two headings read alike, the source gives them in different places.

Test [1] has as its system larvae of the mustard beetle (Phaedon cochleariae). Briefly: Phaedon larvae test (cabbage leaf dip). Format: in vivo. How it is done: (§1) To produce a suitable preparation of active compound, 1 part by weight of an active compound or an active compound combination is mixed with the stated amounts of solvent and emulsifier, and the concentrate is diluted with water to the desired concentration.
Cabbage leaves (Brassica oleracea) are treated by being dipped into the preparation of active compound of the desired concentration and are populated with larvae of the mustard beetle (Phaedon cochleariae) while the leaves are still moist.
After the desired period of time, the kill in % is determined. 100% means that all beetle larvae have been killed; 0% means that none of the beetle larvae have been killed.

Test [2] concerns Heliothis virescens caterpillars. The test can be described thus: Heliothis virescens test (soya bean shoot dip). Format: in vivo. The note with it: concentration 0.00016 %. How it is done: as §1
Soya bean shoots (Glycine max) are treated by being dipped into the active compound preparation of the desired concentration and are populated with Heliothis virescens caterpillars while the leaves are still moist.
After the desired period of time, the kill in % is determined. 100% means that all caterpillars have been killed; 0% means that none of the caterpillars have been killed.

Test [3] relates to green rice leaf hopper (Nephotettix cincticeps). The test can be described thus: Nephotettix test (rice seedling dip). Format: in vivo. How it is done:
as §1
Rice seedlings (Oryza sativa) are treated by being dipped into the active compound preparation of the desired concentration and are populated with the green rice leaf hopper (Nephotettix cincticeps) while the leaves are still moist.
After the desired period of time, the kill in % is determined. 100% means that all the leaf hoppers have been killed; 0% means that none of the leaf hoppers have been killed.

A further test concerns green peach aphid. Briefly: Myzus test (cabbage leaf dip). Format: in vivo, Myzus (green peach aphid). The following applies: concentration 0.00016 %. How it is done: as §1
Cabbage leaves (Brassica oleracea) which are heavily infested by the green peach aphid are treated by being dipped into the active compound preparation of the desired concentration.
After the desired period of time, the kill in % is determined. 100% means that all aphids have been killed; 0% means that none of the aphids have been killed.

In test [4] the test system is Diabrotica balteata larvae in soil. Briefly: Critical concentration test/soil insects, Diabrotica balteata. Format: in vivo. The following applies: Diabrotica balteata, 168 h, 7 days after infestation, read-out: Kill in %. The protocol: (§2) To produce a suitable preparation of active compound, 1 part by weight of the active compound or the active compound mixture is mixed with the stated amounts of solvent and emulsifier, and the concentrate is diluted with water to the desired concentration.
(§3) The active compound preparation is mixed intimately with soil. Here, the concentration of the active compound in the preparation is almost irrelevant; only the amount by weight of active compound or active compound mixture per volume unit of soil, which is stated in ppm (mg/l), matters.
Soil is filled into 0.5 l pots and these are allowed to stand at 20° C. Immediately after preparation, 5 pre-germinated maize corns are placed into each pot. After 2 days, the test insects are placed into the treated soil. After a further 7 days, the kill in % is determined. 100% means that all test insects have been killed; 0% means that none of the test insects have been killed.

In test [5] the test system is Phaedon cochleariae larvae. The test can be described thus: Critical concentration test/root-systemic action, Phaedon cochleariae. Format: in vivo. The following applies: 72 h, root-systemic, 3 days after infestation, read-out: Kill in %. The protocol: as §2, §3
Soil is filled into 250 ml pots and these are planted with cabbage (Brassica oleracea). The active compound or the active compound combination can thus be taken up by the plant roots from the soil and transported into the leaves.
After 7 days, the leaves are populated with the abovementioned test animals. After a further 3 days, the kill in % is determined. 100% means that all test insects have been killed; 0% means that the number of insects which are still alive is the same as in the untreated control.

A further test concerns Phytophthora infestans. Format: in vivo. The note with it: single active compound.
In a further test the test system is Sphaerotheca fuliginea. Briefly: Sphaerotheca test (cucumber)/protective. Format: in vivo. The following applies: 10 g/ha, single active compound, 10 days after inoculation. How it is done:
(§4) To produce a suitable preparation of active compound, 1 part by weight of active compound or active compound combination is mixed with the stated amounts of solvent and emulsifier, and the concentrate is diluted with water to the desired concentration, or a commercial formulation of active compound or active compound combination is diluted with water to the desired concentration.
To test for protective activity, young plants are sprayed with the commercial active compound preparation at the stated application rate. After the spray coating has dried on, the plants are inoculated with an aqueous spore suspension of Sphaerotheca fuliginea. The plants are then placed in a greenhouse at approximately 23° C. and a relative atmospheric humidity of approximately 70%.
Evaluation is carried out 10 days after the inoculation. 0% means an efficacy which corresponds to that of the control, whereas an efficacy of 100% means that no infection is observed.

The subject of a further test is Botrytis cinerea. Briefly: Botrytis test (bean)/protective. Format: in vivo. The following applies: single active compound. How it is done:
as §4
To test for protective activity, young plants are sprayed with the active compound preparation at the stated application rate. After the spray coating has dried on, 2 small pieces of agar colonized by Botrytis cinerea are placed onto each leaf. The inoculated plants are placed in a dark chamber at approximately 20° C. and 100% relative atmospheric humidity.
2 days after the inoculation, the size of the disease spots on the leaves is evaluated. 0% means an efficacy which corresponds to that of the control, whereas an efficacy of 100% means that no infection is observed.

For the next test, the system named is Pyrenophora teres. The test can be described thus: Pyrenophora teres test (barley)/protective. Format: in vivo. The following applies: single active compound. How it is done: as §4
To test for protective activity, young plants are sprayed with the active compound preparation at the stated application rate. After the spray coating has dried on, the plants are sprayed with a conidia suspension of Pyrenophora teres. The plants remain in an incubation cabin at 20° C. and 100% relative atmospheric humidity for 48 hours.
The plants are then placed in a greenhouse at a temperature of approximately 20° C. and a relative atmospheric humidity of approximately 80%.
Evaluation is carried out 7 days after the inoculation. 0% means an efficacy which corresponds to that of the control, whereas an efficacy of 100% means that no infection is observed.

Test [6] deals with Diabrotica balteata - larvae in the soil. The test can be described thus: Critical concentration test/soil insects, Diabrotica balteata (Example Q). Format: in vivo. The note with it: 1.25 ppm in soil; efficacy calculated from number of emerged maize plants. How it is done:
To produce a suitable preparation of active compound, 1 part by weight of active compound is mixed with the stated amount of solvent, the stated amount of emulsifier is added and the concentrate is diluted with water to the desired concentration. Here, the concentration of the active compound in the preparation is almost irrelevant; only the amount by weight of active compound per volume unit of soil, which is stated in ppm (mg/l), matters. The soil is filled into 0.5 l pots and these are allowed to stand at 20° C.
Immediately after preparation, 5 maize corns are placed into each pot. After 3 days, the test insects are placed into the treated soil. After a further 7 days, the efficacy is determined. The efficacy is calculated from the number of maize plants which have emerged.

Turning to `N#C/N=C1/SCCN1Cc1ccc(Cl)nc1` [formula (I)], the Kill in % is recorded as 5% in test [1] (concentration 0.00016 %); 40% in [1] (concentration 0.0008 %); 15% in test [2]; 0% in test [3] (concentration 0.000032 %); 35% in test [3] (concentration 0.00016 %); 25% with green peach aphid. Moreover, in [4] (1.25 ppm in soil), the pest or weed control at 1.25 ppm worked out at 0%. Besides, the figures for the pest or weed control at 2.5 ppm in test [4] (2.50 ppm in soil) and in test [5] (2.50 ppm in soil) were 40% and 0%, respectively. Besides, the pest or weed control at 5 ppm came out at 90% in test [4] (5.00 ppm in soil) and 80% in test [5] (5.00 ppm in soil). Further, the pest or weed control at 10 ppm in test [5] (10.00 ppm in soil) was found to be 95%. For the same compound, the Efficacy in % in the test on Phytophthora infestans (10 g/ha) was determined as 0%; in the test with Phytophthora infestans (50 g/ha) it was 11%; in the test with Phytophthora infestans (500 g/ha, 3 days after inoculation), 46%; in the test on Sphaerotheca fuliginea it was 0%; in the test on Botrytis cinerea (10 g/ha, 2 days after inoculation) it was 0%; with Botrytis cinerea (40 g/ha) it was 0%. Besides, in the test on Botrytis cinerea (500 g/ha), the Efficacy in % is listed as 0%. For the same compound, the “Efficacy in % calculated/found” value is given as 20% in the test on Pyrenophora teres (18.75 g/ha) and 0% in the test on Pyrenophora teres (62.5 g/ha, 7 days after inoculation). The “Kill in % at active compound concentrations in ppm” value in test [6] was 1.25 ppm = 50%.
